Experimental data as given in patent publication US11180459B2, “Bacterial efflux pump inhibitors” (RUTGERS, THE STATE UNIVERSITY OF NEW JERSEY, priority 2017, dated 2021).
Where a name gives a salt, the structure may show the parent alone.

Assays:
[1] = system: Escherichia coli ATCC 25922; experiment: Standard EPI assay: clarithromycin MIC with EPI; format: cell-based; conditions: clarithromycin as antibiotic; E. coli ATCC 25922; EPI at 50 (μg)
Procedure: (§1) MIC assays were conducted in accordance with Clinical and Laboratory Standards Institute (CLSI) guidelines for broth microdilution.
(§2) The EPI assay for the purposes of these studies represents a MIC assay in which the MIC of the antibiotic against the bacteria is tested in the presence of an experimental efflux pump inhibitor (EPI). The highest concentration of the EPI present in the assay typically is ½ of the intrinsic MIC of the compound. If the intrinsic MIC of the EPI is greater than 100 μg/mL, the EPI assay was tested with 50 μg/mL. Using serial dilutions of the EPI, its enhancement of antibiotic activity was then evaluated. The relative EPI activity was decided by comparing the MIC of the antibiotic in the presence of the EPI compound with the intrinsic MIC of the antibiotic alone. For the evaluation of the efficacy of an EPI against bacteria that were pre-exposed to an antibiotic, the inoculum of bacteria that used was developed from a bacterial culture isolated as a single colony following exposure at ½ the MIIC of the antibiotic (so as to induce efflux pump expression), was to be used in combination with the EPI.
(§3) In our standard EPI assay, the MIC of the test antibiotic is determined in the absence and presence of sub-inhibitory concentrations of the EPI. Initially, the sub-inhibitory concentration used was ½×MIC of the EPI. […] The MIC of levofloxacin against P. aeruginosa ATCC 27853 in the absence of EPI is 1 μg/mL. […] Similar methodology was employed to examine the synergy with Escherichia coli ATCC 25922 in the presence of varied concentrations of these EPIs using clarithromycin as the antibiotic.

[2] = system: Pseudomonas aeruginosa ATCC 27853; experiment: Standard EPI assay: levofloxacin MIC with EPI; format: cell-based; conditions: levofloxacin as antibiotic, P. aeruginosa ATCC 27853
Procedure: as §1, §2, §3

Row | SMILES | Enhanced Activity in E. coli (fold enhancement of antibiotic activity / EPI concentration) [1] [×/50] | Enhanced Activity in P. aeruginosa (fold enhancement of antibiotic activity / EPI concentration) ([2]; EPI at 12.5 (μg)) [×/12.5] | Enhanced Activity in P. aeruginosa (fold enhancement of antibiotic activity / EPI concentration) ([2]; EPI at 25 (μg)) [×/25]
1 | Cl.Cl.NCCC(N)CNC(=O)c1nc2cc(-c3ccc(F)cc3)ccc2[nH]1 (stereo in doubt) [Example 12, (S)-4-(5-(4-fluorophenyl)-1H-benzo[d]imidazole-2-carboxamido) butane-1,3-diaminium Chloride] | 8 | 4 | 
2 | Cn1c(C(=O)NC[C@@H](N)CCCN)nc2cc(-c3ccc(F)cc3)cc(C(F)(F)F)c21 [Example 4, (S)—N-(2,5-diaminopentyl)-5-(4-fluorophenyl)-1-methyl-7-(trifluoromethyl)-1H-benzo[d]imidazole-2-carboxamide Dihydrochloride] | 512 | 8 | 
3 | COc1ccc(-c2ccc3[nH]c(C(=O)NC[C@@H](N)CCCN)nc3c2)cc1 [Example 8, (S)—N-(2,5-diaminopentyl)-5-(4-methoxyphenyl)-1H-benzo[d]imidazole-2-carboxamide Dihydrochloride] | 2 | 2 | 
4 | NCCC[C@H](N)c1nc2cc(-c3ccc(F)cc3)ccc2[nH]1 [Example 9, (S)-1-(5-(4-fluorophenyl)-1H-benzo[d]imidazol-2-yl)butane-1,4-diamine Dihydrochloride] | 256 |  | 1
5 | CC(C)(N)C1CN[C@H](CNC(=O)c2nc3ccc(-c4ccc(F)cc4)cc3[nH]2)C1 (stereo partly drawn) [Example 11, N-(((2S)-4-(2-aminopropan-2-yl)pyrrolidin-2-yl)methyl)-6-(4-fluorophenyl)-1H-benzo[d]imidazole-2-carboxamide Dihydrochloride] |  | 2 | 
6 | Cl.Cl.NC[C@H](N)CNC(=O)c1nc2ccc(-c3ccc(F)cc3)cc2[nH]1 [Example 13, (S)-3-(5-(4-fluorophenyl)-1H-benzo[d]imidazole-2-carboxamido) propane-1,2-diaminium Dihydrochloride] |  |  | 4
7 | Cl.Cl.N=C(N)NCCC[C@H](N)CNC(=O)c1nc2cc(-c3ccc(F)cc3)ccc2[nH]1 [Example 14, (S)-5-((amino(iminio)methyl)amino)-1-(5-(4-fluorophenyl)-1H-benzo[d]imidazole-2-carboxamido) pentan-2-aminium Chloride] | 2 | 4 | 
8 | COc1ccc(-c2ccc3nc(C(=O)NC[C@@H](N)CCN)[nH]c3c2)cc1.Cl.Cl [Example 15, (S)-4-(5-(4-methoxyphenyl)-1H-benzo[d]imidazole-2-carboxamido)butane-1,3-diaminium Dihydrochloride] | 2 | 2 | 
9 | NC[C@@H]1CN[C@H](CNC(=O)c2nc3cc(-c4ccc(F)cc4)ccc3[nH]2)C1 [Example 21, N-(((2S,4R)-4-(aminomethyl)pyrrolidin-2-yl)methyl)-5-(4-fluorophenyl)-1H-benzo[d]imidazole-2-carboxamide Dihydrochloride] | 256 |  | 8
